The source of these data is patent publication US12168781B2, “Production method for T cells or NK cells, medium for culturing T cells or NK cells, method for culturing T cells or NK cells, method for maintaining undifferentiated state of undifferentiated T cells, and growth-accelerating agent for T cells or NK cells” (KIRIN HOLDINGS KABUSHIKI KAISHA, priority 2018, dated 2024).

The structures appear in SMILES notation.

In experiment [1] the test system is CD8beta(+)CD8alpha(+) T cells. In words: Long-term culturing of T cells obtained by feeder-free differentiation induction, trypan blue count. It counts as cell-based, human. Conditions: 1 μM, FIG. 14(B). The protocol:
The possibility of long-term culturing of T-iPS-T cells using berbamine was evaluated. First, T cells were induced from T-iPS cells without using a feeder. For the maintenance of iPS cells, StemFit AK02N medium (Ajinomo) was used for feeder-free iPS cells. The iPS cells were detached from the culture surface coated with iMatrix-511 using a dissociation agent [1× TrypLE Select (Thermo Fisher Scientific) was diluted to 1/2 with PBS, and a 0.5 mol/L EDTA solution (pH 8, Nacalai Tesque) was added thereto to give a final concentration of 0.5× TrypLE Select and 0.75 mM EDTA], and subcultured in a culture medium obtained by adding 10 μM Y-27632 to StemFit AK02N (37° C., 5% CO2). On the following day, the culture medium was replaced with Stemfit AK02N. This operation was repeated once a week to maintain the iPS cells.
Hematopoietic progenitor cells (HPCs) were produced by inducing the differentiation of iPS cells by an embryoid body formation method. The feeder-free iPS cells were detached with 0.5× TrypLE Select, and 0.75 mM EDTA, and then seeded at 2 to 3×10^5 cells/well in a 6-well plate (CORNING) subjected to an ultra-low adhesion treatment. By using Stemfit AK02N medium supplemented with 10 μM Y-27632 (Nacalai Tesque) and 10 μM CHIR99021 (Tocris Bioscience), the cells were cultured under low oxygen conditions (5% 02) (Day 0). […]

A further experiment deals with CD8 T cells. The experiment is described as follows: Engraftment into mice of CD8 T cells cultured with the compound. It counts as in vivo. Conditions: cells cultured 10 days with 1 μM, two weeks after transplantation into NSG mice, FIG. 19(B). The protocol:
The effect of cells cultured with berbamine on engraftment into mice was examined. As a method therefor, CD8 T cells were purified from PBMCs (CTL, Inc.) derived from a healthy subject using CD8 T Cell Isolation Kit, human (Miltenyi, 130-096-495). The purified CD8 T cells (20,000 cells/well) were seeded, and berbamine (BBM) at 1 μM or MilliQ water that is a solvent for the compound as a control was added thereto, and the cells were cultured in the same culture medium by the same stimulation method as in additional Example 6, and the cells cultured for 10 days were used as cells to be transplanted. NSG male mice at 6 to 11 weeks of age (Charles River Japan) were used as experimental animals and transplantation was performed through the tail vein (approximately 4×10^6 cells). Two weeks after the transplantation, the spleen, peripheral blood and bone marrow were collected, and the CD8β and CD45 positive rates were analyzed by FACS. In the FACS, after the spleen and bone marrow were subjected to a homogenization treatment, and the peripheral blood was subjected to a hemolysis treatment, the resulting materials were transferred to a 96-well plate, followed by washing with a staining solution (PBS containing 2% FBS), and then staining with CD8β-PE-cy7 (eBioscience, 25-5273-42) and CD45-APC-Cy7 (BioLegend, 304014). After washing, the cells were resuspended in the staining solution containing PI. An analysis was performed using a BD LSR Fortessa cytometer (BD Bioscience). The positive rate of CD8β(+)CD45(+) cells in the PI-negative cell population analyzed by FlowJo 9 was measured. Note that in a statistical analysis, a Student's t-test was used (*: p<0.05).

As for `COc1cc2c3cc1Oc1c(OC)c(OC)cc4c1[C@@H](Cc1ccc(O)c(c1)Oc1ccc(cc1)C[C@@H]3N(C)CC2)N(C)CC4` [berbamine], the “period for which the cells could be cultured” value in experiment [1] (restimulated on day 14, 28, 42, MilliQ water control could not be cultured after day 42) turned out to be 56 days. The “proliferation of the cells in long-term culturing” value in experiment [1] (vs MilliQ water) is recorded as “enhancement of the proliferation of T-iPS-T cells”. The “positive rate of CD8β(+)CD45(+) cells (engraftment) compared with cells cultured with MilliQ water” value in the experiment on CD8 T cells (bone marrow), in the experiment with CD8 T cells (peripheral blood) and with CD8 T cells (spleen) was “significant engraftment” in each case.
